Activity calls are given as the source filed them. The calls are words filed in the database; no cut-off is given here.

In experiment [1] the test system is Mus musculus. Description: Antinociceptive activity in ip dosed Swiss mouse assessed as reduction of formalin-induced inflammatory pain administered 60 mins before formalin challenge measured during 15 to 30 mins. The format is functional. The note with it: read-out: ID50 (the source's name).
Experiment [2] has as its system Mus musculus. Description: Antinociceptive activity in ip dosed Swiss mouse assessed as reduction of formalin-induced neurogenic pain administered 60 mins before formalin challenge measured during 0 to 5 mins. The format is functional.
The test system of experiment [3] is Mus musculus. Description: Antinociceptive activity in Swiss mouse assessed as reduction of acetic acid-induced abdominal constructions at 1 to 10 mg/kg, ip administered 30 mins before acetic acid challenge measured after 20 mins relative to control. The format is functional, Abdomen. Particulars: dose mg/kg 1-10; route intraperitoneal.
The subject of experiment [4] is Mus musculus. Nature of the experiment: Antinociceptive activity in Swiss mouse assessed as reduction of formalin-induced inflammatory pain at 1 to 10 mg/kg, ip administered 60 mins before formalin challenge measured during 15 to 30 mins relative to control. The format is functional. Particulars: route intraperitoneal.
Experiment [5] has as its system Mus musculus. Description: Antinociceptive activity in ip dosed Swiss mouse assessed as reduction of acetic acid-induced abdominal constructions administered 30 mins before acetic acid challenge measured for 20 mins. The format is functional. The note with it: Abdomen, read-out: ID50 (the source's name).
Experiment [6] has as its system Mus musculus. Description: Antinociceptive activity in Swiss mouse assessed as reduction of formalin-induced neurogenic pain at 1 to 10 mg/kg, ip administered 60 mins before formalin challenge measured during 0 to 5 mins relative to control. Particulars: route intraperitoneal. The format is functional.

With `CC(=O)Nc1ccc(O)cc1` [ACETAMINOPHEN], the ED50 in the experiment with Mus musculus [1] is 120 µmol/kg; in the experiment with Mus musculus [5], 125 µmol/kg. In addition, the result in the experiment on Mus musculus [2] was inactive. Moreover, the “inhibition (INH)” value in the experiment on Mus musculus [3] worked out at 88%; in the experiment with Mus musculus [4], 85%.
Consider `C[C@@H]1CC[C@]2(C(=O)O[C@@H]3O[C@H](CO)[C@@H](O)[C@H](O)[C@H]3O)CC[C@]3(C)C(=CC[C@@H]4[C@@]5(C)C[C@@H](O)[C@H](O)[C@@](C)(CO)[C@@H]5CC[C@]43C)[C@@H]2[C@]1(C)O` [NIGAICHIGOSIDE F1], for which the ED50 in the experiment with Mus musculus [1] was found to be 4.1 µmol/kg; in the experiment with Mus musculus [2] (read-out: ID50 (the source's name)), 3.9 µmol/kg; in the experiment on Mus musculus [5], 4.6 µmol/kg. The “inhibition (INH)” value with Mus musculus [3] was found to be 67.6%; in the experiment with Mus musculus [4] it was 94%; in the experiment with Mus musculus [6], 70.4%.
For `CC(=O)Oc1ccccc1C(=O)O` [ASPIRIN], the ED50 worked out at 123 µmol/kg in the experiment with Mus musculus [1] and 133 µmol/kg in the experiment with Mus musculus [5]. Besides, the outcome in the experiment with Mus musculus [2] was inactive. Further, the entries for the “inhibition (INH)” value in the experiment with Mus musculus [3] and in the experiment with Mus musculus [4] were 83% and 88%, respectively.
